{
  "source": "patent US20040077563A1",
  "about": "“Methods of drug delivery to hepatocytes and treatment of flaviviridae infections” (priority 2003, published 2004)",
  "key": {"[1]": {"tested_on": "Hep3B, HepG2 & Huh7 cell lines", "assay": "Uptake of [3H]-labeled nucleosides by different human liver cell lines", "type": "cell-based", "conditions": "for nucleoside uptake into hepatocytes (radioactivity in the cell lysate): Hep3B, HepG2, Huh7, 20 μCi/ml [3H]-nucleoside plus 10 μM cold nucleoside, 4 hr at 37° C, FIG. 1", "protocol": "In order to determine whether Ribavirin and Viramidine™ use a similar mode of entry in human hepatocytes, the inventors performed several experiments. First, various strains of hepatocytes (Hep3B, HepG2, and Huh7) were incubated with various nucleotide analogs (e.g., Ribavirin, Levovirin (the L-isomer of Ribavirin), and Viramidine™), and the result of the nucleoside uptake experiments are illustrated in FIG. 1.\nHep3B, HepG2 & Huh7 cell lines were used at a concentration of 50,000 cells/well in a 24-wells plate, and incubated with [^3H]-labeled Ribavirin, Levovirin™, and Viramidine™ (20 μCi/ml) plus 10 μM cold nucleoside for 4 hr at 37° C. The cells were washed with PBS and lysed, and the radioactivity in the cell lysate (i.e.the amount of labeled nucleoside taken up by the cells) was determined in a scintillation counter."}, "HepG2 cells": {"tested_on": "HepG2 cells", "assay": "Nucleoside competition assay", "type": "cell-based, human", "conditions": "cold competitor 0, 100 μM, 500 μM, 2 mM, 2 hrs at 37° C", "protocol": "To address this question, the inventors performed uptake competition experiments in which radiolabeled Ribavirin or Viramidine™ competed for uptake with unlabeled Viramidine™ or Ribavirin, respectively.\n50,000 HepG2 cells/well were placed in a 24-wells plate and incubated with [3H]-labeled nucleoside (20 μCi/ml). Competition was performed with increasing concentrations of cold (0, 100 μM, 500 μM, and 2 mM) competitor nucleoside. Incubation time was 2 hrs at 37° C. The cells were then washed with PBS and lysed. The radioactivity in the cell lysate (i.e. the amount of labeled nucleoside taken up by the cells) was determined in a scintillation counter."}, "erythrocytes [2]": {"tested_on": "erythrocytes", "conditions": "stated as known for Ribavirin; cited from earlier work"}, "flaviviridae": {"tested_on": "flaviviridae", "assay": "Inhibition of growth of flaviviridae in a cell containing medium", "type": "cell-based", "conditions": "added to a cell-containing medium; data not shown", "source_text": "The family of flaviviridae has recently gained special attention due to several occurrences of West Nile Virus encephalitis in the eastern part of the USA, resulting in at least 7 reported deaths and at least 62 cases of severe disease. Moreover, hepatitis C-like viruses (and the HCV virus) also belong to the family of flaviviridae, further adding to the significance of flaviviridae with respect to public and private health. While not wishing to be bound by a particular theory or hypothesis, it is contemplated that increased transport of Viramidine™*HCl is particularly beneficial for treatment of flaviridae-virus infections."}, "Water solubility": {"assay": "Water solubility", "type": "physicochemical", "source_text": "It is contemplated that Viramidine™*HCl (in either D- or L-configuration) will be administered in any appropriate pharmaceutical formulation, and under any appropriate protocol. Thus, administration may take place orally, parenterally (including subcutaneous injections, intravenous, intramuscularly, by intrasternal injection or infusion techniques), by inhalation spray, or rectally, topically and so forth, and in dosage unit formulations containing conventional non-toxic pharmaceutically acceptable carriers, adjuvants and vehicles. By way of example, it is contemplated that Viramidine™*HCl can be formulated in admixture with a pharmaceutically acceptable carrier. For example, Viramidine™*HCl can be administered orally as pharmacologically acceptable salts. […] Conventional buffers such as phosphates, bicarbonates or citrates can be used for this purpose. Of course, one of ordinary skill in the art may modify the formulations within the teachings of the specification to provide numerous formulations for a particular route of administration without rendering Viramidine™*HCl unstable or compromising their therapeutic activity. In particular, the modification of Viramidine™*HCl to render it more soluble in water or another vehicle, for example, may be easily accomplished by minor modifications (salt formulation, esterification, etc.) that are well within the ordinary skill in the art. […]"}, "erythrocytes [3]": {"tested_on": "erythrocytes", "assay": "Uptake into erythrocytes", "type": "cell-based", "conditions": "data not shown", "source_text": "Thus, it should be appreciated that toxicity of a nucleoside or nucleotide compound can be reduced by modifying the compound to include a carboxamidine moiety or modified carboxamidine moiety as described above, wherein target cells for modified compounds include a transporter system, which non-target cells lack. […] It is contemplated that this difference in uptake is attributable to the lack of a Viramidine™ uptake and/or transporter system."}, "[4]": {"tested_on": "deaminase/deamidase activity in hepatocytes", "assay": "Conversion of carboxamidine to carboxamide in the liver", "type": "in vitro ADME", "conditions": "unpublished results", "source_text": "Therefore, it is contemplated that by including a carboxamidine group to a molecule and exploiting the relatively high deaminase/deamidase acitivity of hepatocytes, molecules may be specifically targeted to the liver. With respect to contemplated molecules having a —C(NR1)(NR2R3) it should be appreciated that various deaminase/deamidase acitivities of hepatocytes are sufficiently high to convert such compounds from a prodrug form into an active drug form (e.g., drug activity is increased when carboxamide group is present)."}},
  "data": [
    {"compound": "NC(=O)c1ncn([C@H]2O[C@@H](CO)[C@H](O)[C@@H]2O)n1", "note": "[Levovirin, reference compound]", "values": [
      {"measurement": "nucleoside uptake into hepatocytes (radioactivity in the cell lysate)", "setting": "[1]", "result": "taken up into all of the tested hepatocytes"}
    ]},
    {"compound": "NC(=O)c1ncn([C@@H]2O[C@H](CO)[C@@H](O)[C@H]2O)n1", "note": "[Ribavirin, 1-beta-D-ribofuranosyl-1,2,4-triazole-3-carboxamide, reference compound]", "values": [
      {"measurement": "nucleoside uptake into hepatocytes (radioactivity in the cell lysate)", "setting": "[1]", "result": "more efficiently taken up over the L-isomer of Ribavirin"},
      {"measurement": "competition of [3H]-Viramidine uptake by unlabeled competitor", "setting": "HepG2 cells; FIG. 3", "result": "at least partial competition"},
      {"measurement": "uptake into erythrocytes (background statement)", "setting": "erythrocytes [2]", "result": "readily taken up by erythrocytes"}
    ]},
    {"compound": "Cl.N=C(N)c1ncn([C@@H]2O[C@H](CO)[C@@H](O)[C@H]2O)n1", "note": "[Viramidine™*HCl, 1-beta-D-ribofuranosyl-1,2,4-triazole-3-carboxamidine*HCl]", "values": [
      {"measurement": "inhibition of growth of flaviviridae", "setting": "flaviviridae", "result": "can be inhibited"},
      {"measurement": "water solubility", "setting": "Water solubility", "result": "mostly water soluble"}
    ]},
    {"compound": "N=C(N)c1ncn([C@@H]2O[C@H](CO)[C@@H](O)[C@H]2O)n1", "note": "[Viramidine™, 1-beta-D-ribofuranosyl-1,2,4-triazole-3-carboxamidine]", "values": [
      {"measurement": "nucleoside uptake into hepatocytes (radioactivity in the cell lysate)", "setting": "[1]", "result": "taken up to a significantly higher degree in all three cell lines"},
      {"measurement": "rate of uptake into, and overall concentration in, hepatocytes as compared to Ribavirin", "setting": "[1]; hepatocytes", "result": "significantly higher"},
      {"measurement": "competition of [3H]-Ribavirin uptake by unlabeled competitor", "setting": "HepG2 cells; FIG. 2", "result": "at least partial competition"},
      {"measurement": "uptake into erythrocytes", "setting": "erythrocytes [3]", "result": "not taken up into erythrocytes"},
      {"measurement": "conversion in the liver", "setting": "[4]", "result": "converted in the liver to Ribavirin"}
    ]}
  ]
}
